Source: patent US12558366B2, “Bacterial DNA gyrase inhibitors and methods of use thereof” (THE FLORIDA INTERNATIONAL UNIVERSITY BOARD OF TRUSTEES, priority 2021, dated 2026)
Like-named read-outs stand apart in the source and are kept apart here.

Experiments:
[1] = tested on: E. coli imp; experiment: microbe, parasite or virus in culture; type: cell-based; settings: Escherichia coli
Experimental: Antibacterial minimum inhibitory concentrations (MICs) were obtained from three independent experiments using broth microdilution methods in 96-well plates according to Clinical and Laboratory Standards Institute guidelines. Cells were culture from singles colonies in MHIIB medium for 24 h at 37° C. in agitation (200 RPM). The cultures were then diluted using the same media to reach an OD600 of 0.1. Then, 50 μL of the diluted cultures were added to the plates holding 50 μL of serially diluted compounds in MHIIB. The plates were incubated at 37° C. for 20 h. The starting inoculum was fixated to 10^5 colony-forming units per ml.

[2] = molecular target: T1, E. coli DNA gyrase (Escherichia coli, UniProt P0AES4+P0AES6); experiment: Agarose gel-based DNA gyrase inhibition assays; type: biochemical
Experimental: 100 ng of DNA gyrase was used to supercoil the rx pAB1 in the presence of different concentrations of a gyrase inhibitor. […] Samples were analyzed by electrophoresis in 1% w/v agarose gels followed by ethidium bromide staining and photographed under UV light.

[3] = molecular target: T1, E. coli DNA gyrase; experiment: E. coli DNA gyrase inhibition (agarose gel-based and/or SDFQ-based, not specified per value); type: biochemical
[4] = tested on: Mtb; experiment: Mtb inhibition (antibacterial activity); type: cell-based, Mycobacterium tuberculosis
[5] = read-out: Minimum Inhibitory Concentration E. coli imp
[6] = Table 2 values, read-out: IC50 ( ≤15 μM) IC50

T1 sequence (P0AES4 whole entry, one chain of several): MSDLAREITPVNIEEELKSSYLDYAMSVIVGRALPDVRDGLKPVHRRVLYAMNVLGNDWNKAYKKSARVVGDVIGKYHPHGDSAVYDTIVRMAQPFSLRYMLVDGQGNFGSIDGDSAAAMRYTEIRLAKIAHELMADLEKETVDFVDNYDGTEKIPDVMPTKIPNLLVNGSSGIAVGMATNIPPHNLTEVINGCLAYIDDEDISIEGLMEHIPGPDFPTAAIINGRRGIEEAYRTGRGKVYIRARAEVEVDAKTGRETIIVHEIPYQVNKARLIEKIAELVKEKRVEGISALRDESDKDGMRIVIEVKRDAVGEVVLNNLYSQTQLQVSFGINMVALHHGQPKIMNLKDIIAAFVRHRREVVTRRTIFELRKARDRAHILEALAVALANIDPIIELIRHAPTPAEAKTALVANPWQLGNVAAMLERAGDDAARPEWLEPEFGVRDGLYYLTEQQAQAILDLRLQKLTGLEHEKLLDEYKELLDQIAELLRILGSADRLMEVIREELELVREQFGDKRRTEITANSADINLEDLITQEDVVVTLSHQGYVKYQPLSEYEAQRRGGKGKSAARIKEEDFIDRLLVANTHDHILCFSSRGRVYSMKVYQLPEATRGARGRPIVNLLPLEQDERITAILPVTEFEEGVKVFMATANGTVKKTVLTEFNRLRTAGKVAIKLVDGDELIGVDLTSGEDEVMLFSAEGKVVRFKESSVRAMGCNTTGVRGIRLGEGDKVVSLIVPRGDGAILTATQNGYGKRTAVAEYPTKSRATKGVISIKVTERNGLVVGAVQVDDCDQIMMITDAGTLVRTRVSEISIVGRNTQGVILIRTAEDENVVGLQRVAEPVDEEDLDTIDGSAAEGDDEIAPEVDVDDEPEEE

Compound `O=C(/C=C/c1ccco1)Nc1cccc2cccnc12` [Compound 164] has an MIC [1, 5] of 100 µM.
In the case of “mithramycin [Compound 225, reference compound]”, the “inhibition of E. coli DNA gyrase activities” value ([2]; 50 μM of compounds) is reported as “completely inhibited”, the “inhibition of E. coli DNA gyrase activities” value ([2]; 200 μM of compounds) is reported as “completely inhibited” and the “inhibition of E. coli DNA gyrase activities” value [3] is reported as “strongly inhibited”.
With `CN1C[C@H](CNC(=O)OCc2ccccc2)C[C@@H]2c3cccc4c3c(cn4C)C[C@H]21` [Metergoline, reference compound] the “inhibition of gyrase activities” value ([2]; at 100 and 200 μM) was “inhibits gyrase activities”.
With `O=C1/C(=C\c2ccc(O)c([N+](=O)[O-])c2)SC(=S)N1Cc1ccccc1` [Compound 192] the IC50 [3, 6] was 8 µM.
Compound `O=C(O)CCCCCN1C(=O)/C(=C\c2ccc(-c3ccc(Cl)cc3)o2)SC1=S` [Compound 36] has an IC50 [3, 6] of 7.42 µM.
Work on `Cc1cc(C)c2sc(NC(=O)C3CC3)nc2c1` [Compound 73] yielded an IC50 [3, 6] of 7.86 µM.
`O=c1ccc2cc3ccoc3cc2o1` [psoralen, reference compound] was tested, and the “inhibition of E. coli DNA gyrase activities” value [3] was “not a gyrase inhibitor”.
For `COc1cc2ccccc2cc1C(=O)NC(=S)Nc1ccc(C(=O)O)cc1` [Compound 72], the IC50 [3, 6] was 12.4 µM.
For `CC(C)(CS(=O)(=O)[O-])NC(=O)CC[N+](C)(C)CCO` [Compound 42], the IC50 [3, 6] was 2.18 µM.
Work on `O=C(O)CCN1C(=O)/C(=C/c2ccc(-c3nc4ccccc4s3)o2)SC1=S` [Compound 27] yielded an IC50 [3, 6] of 1.74 µM.
`O=C1OC2(c3ccccc31)c1cc(I)c(O)c(I)c1Oc1c2cc(I)c(O)c1I` [Compound 253, Erythrosin B] was tested, and the IC50 [3, 6] was 3.12 µM.
`CNC(=O)[C@H]1O[C@@H](n2cnc3c(NCc4cccc(I)c4)nc(Cl)nc32)[C@H](O)[C@@H]1O` [Compound 76] was tested, and the IC50 [3, 6] was 2.53 µM.
`Cc1c2cc(O)c(=O)cc-2oc2cc(O)c(O)cc12` [Compound 75] was tested, and the IC50 [3, 6] was 5.28 µM.
In the case of `O=[N+]([O-])c1cc(/C=N/Nc2nc3ccccc3[nH]2)c(O)cc1O` [Compound 159], the IC50 [3, 6] is reported as 6.25 µM.
`NN=C1c2ccccc2C(=O)C1C(=O)C(c1ccccc1)c1ccccc1` (centres unmarked) [Compound 211] was tested, and the “inhibition of E. coli DNA gyrase activities” value ([2]; 50 μM of compounds) was “inhibited”, the “inhibition of E. coli DNA gyrase activities” value ([2]; 200 μM of compounds) was “completely inhibited” and the IC50 [3] was 50 to 200 µM.
With `O=C1NC(=S)SC1=Cc1cc(Cl)cc(Cl)c1O` [Compound 207] the “inhibition of E. coli DNA gyrase activities” value ([2]; 50 μM of compounds) was “inhibited”, the “inhibition of E. coli DNA gyrase activities” value ([2]; 200 μM of compounds) was “completely inhibited” and the IC50 [3] was 50 to 200 µM.
`Cc1cccc2c1N=C(O)C2=NNc1ccc(S(C)(=O)=O)cc1` [Compound 109] was tested, and the “inhibition of E. coli DNA gyrase activities” value ([2]; 50 μM of compounds) was “completely inhibited”.
`N#C/C(=C\c1coc2ccc(O)cc2c1=O)C(=O)/N=c1\[nH]c2ccccc2s1` [Compound 165] was tested, and the IC50 [3, 6] was 6.25 µM.
With `CSc1nc(SCC(=O)O)c2sc3nc(-c4ccccc4)c4c(c3c2n1)CCC4` [Compound 19] the IC50 [3, 6] was 3.55 µM and the “activity against Mtb” value [4] was “Mtb active hits”.
`CCCCCCCCOC(=O)c1cc(O)c(O)c(O)c1` [Octyl gallate] was tested, and the MIC ([1]; read-out: MIC (μg/ml) E. coli imp) was 14.1 µg/mL.
`COc1cc(/C=N/N=c2\[nH]c3ccccc3s2)cc([N+](=O)[O-])c1O` [Compound 178] was tested, and the IC50 [3, 6] was 1.56 µM and the “activity against Mtb” value [4] was “Mtb active hits”.
`C[n+]1c(-c2ccc(C=NNC(=O)c3ccc(C(=O)NN=Cc4ccc(-c5cn6ccccc6[n+]5C)cc4)cc3)cc2)cn2ccccc21` [Compound 229] showed an IC50 [3] of 25 to 50 µM.
With `O=C(O)c1cccc(-c2ccc(/C=c3/sc4nc5ccccc5n4c3=O)o2)c1` [Compound 47] the IC50 [3, 6] was 1.87 µM and the “activity against Mtb” value [4] was “Mtb active hits”.
In the case of `O=C(O)c1ccc(/N=N/C2C(O)=Nc3ccc(F)cc32)cc1` (centres unmarked) [Compound 127], the “activity against Mtb” value [4] is reported as “Mtb active hits”.
With `Cc1cccc2c1N=C(O)C2/N=N/c1ccc(C(=O)O)cc1` (centres unmarked) [Compound 128] the “activity against Mtb” value [4] was “Mtb active hits”.
`O=C(O)C(Cc1ccccc1)N1C(=O)/C(=C\C=C\c2ccco2)SC1=S` (centres unmarked) [Compound 157] was tested, and the MIC [1, 5] was 100 µM and the IC50 [3, 6] was 10 µM.
In the case of `O=C(NN1C(=O)/C(=C\C=C\c2ccco2)SC1=S)c1ccccc1O` [Compound 180], the MIC [1, 5] is reported as 100 µM.
Compound `O=C(O)C(c1ccccc1)N1C(=O)/C(=C\c2ccc(-c3cccc(Cl)c3)o2)SC1=S` (centres unmarked) [Compound 176] has an IC50 [3, 6] of 2 µM.
